Results published in ChEMBL document CHEMBL5154804, “Species-Selective Targeting of Fungal Hsp90: Design, Synthesis, and Evaluation of Novel 4,5-Diarylisoxazole Derivatives for the Combination Treatment of Azole-Resistant Candidiasis” (J Med Chem, 2022).
Activity calls are given as the source filed them. No cut-off for these calls is given here.

Columns and labels:
[1] = Volume of distribution in Sprague-Dawley rat at 10 mg/kg, iv measured upto 24 hrs by LC/MS/MS analysis; format: ADME, organism-based; details: in vivo
[2] = Clearance in Sprague-Dawley rat at 10 mg/kg, iv measured upto 24 hrs by LC/MS/MS analysis; format: ADME, organism-based; details: in vivo
[3] = Stability in rat plasma assessed as compound remaining at 120 mins by LC-MS/MS analysis; format: ADME, cell-free; details: read-out: Stability
[4] = test system: Candida albicans; assay: Reversal of fluconazole mediated azole resistance Candida albicans 904 assessed as downregulation of ERG11 at 32 ug/ml in presence of fluconazole by RT-PCR; format: functional, organism-based; details: dose 32.0 µg/ml
[5] = test system: Rattus norvegicus; assay: In vivo antifungal activity against azole resistant Candida albicans 904 infected in rat assessed as decrease in fungal invasion at 10 mg/kg, ip in presence of fluconazole administered for 5 days, qd by PAS and HE staining based microscopy; format: functional, organism-based; details: time 5.0 day
[6] = MRT (0 to infinity) in Sprague-Dawley rat at 10 mg/kg, iv measured upto 24 hrs by LC/MS/MS analysis; format: ADME, organism-based; details: in vivo
[7] = biological target: T1, CYP1A2 (Homo sapiens, UniProt P05177); assay: Inhibition of CYP1A2 in human liver microsome at 10 uM using phenacetin as substrate incubated for 10 mins in presence of NADPH cofactor and fluconazole by LC-MS/MS analysis; format: ADME; details: liver microsomes, probe phenacetin
T1 sequence (P05177 whole entry): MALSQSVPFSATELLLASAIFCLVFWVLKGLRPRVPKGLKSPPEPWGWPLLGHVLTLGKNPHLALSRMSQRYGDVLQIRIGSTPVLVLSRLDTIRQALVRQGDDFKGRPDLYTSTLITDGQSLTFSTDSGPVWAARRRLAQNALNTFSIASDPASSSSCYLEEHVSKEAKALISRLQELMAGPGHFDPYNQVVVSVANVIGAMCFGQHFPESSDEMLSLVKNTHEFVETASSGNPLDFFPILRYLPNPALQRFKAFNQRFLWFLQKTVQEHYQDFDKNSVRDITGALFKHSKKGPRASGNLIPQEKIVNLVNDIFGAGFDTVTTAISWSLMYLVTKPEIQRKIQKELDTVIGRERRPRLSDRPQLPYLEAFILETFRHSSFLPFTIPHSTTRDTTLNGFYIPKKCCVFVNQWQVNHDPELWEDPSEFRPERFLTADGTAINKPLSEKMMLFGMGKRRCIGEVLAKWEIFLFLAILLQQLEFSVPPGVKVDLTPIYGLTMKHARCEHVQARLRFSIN

[8] = Metabolic stability in rat liver microsomes assessed as intrinsic clearance in presence of NADPH cofactor under shaking condition for 10 mins measured after 5 to 60 mins by LC-MS/MS analysis; format: ADME, Microsome; details: time 15-70 min
[9] = AUC (0 to infinity) in Sprague-Dawley rat at 10 mg/kg, iv measured at upto 24 hrs by LC/MS/MS analysis; format: ADME, organism-based; design: dose 10 mg/kg, time < 24 hrs, route iv; details: in vivo
[10] = biological target: CYP3A4 (Homo sapiens, UniProt P08684); assay: Inhibition of CYP3A4 in human liver microsome at 10 uM using midazolam as substrate incubated for 10 mins in presence of NADPH cofactor and fluconazole by LC-MS/MS analysis; format: ADME; details: liver microsomes, probe midazolam
Sequence of CYP3A4 (P08684 whole entry): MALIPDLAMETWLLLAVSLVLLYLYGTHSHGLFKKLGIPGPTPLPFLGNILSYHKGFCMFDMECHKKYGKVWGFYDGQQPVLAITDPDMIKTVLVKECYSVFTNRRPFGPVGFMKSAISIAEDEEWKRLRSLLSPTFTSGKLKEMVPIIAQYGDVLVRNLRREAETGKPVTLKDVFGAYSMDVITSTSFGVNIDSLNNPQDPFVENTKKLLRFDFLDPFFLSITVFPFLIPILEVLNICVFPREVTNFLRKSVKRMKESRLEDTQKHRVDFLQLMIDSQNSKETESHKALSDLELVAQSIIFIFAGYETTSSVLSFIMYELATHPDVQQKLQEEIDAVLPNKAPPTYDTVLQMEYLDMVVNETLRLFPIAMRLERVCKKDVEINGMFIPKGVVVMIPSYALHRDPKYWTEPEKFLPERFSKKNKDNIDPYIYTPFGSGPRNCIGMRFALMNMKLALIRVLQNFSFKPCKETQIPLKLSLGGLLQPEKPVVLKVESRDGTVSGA

[11] = AUC (0 to t) in Sprague-Dawley rat at 10 mg/kg, iv measured upto 24 hrs by LC/MS/MS analysis; format: ADME, organism-based; design: time < 24 hrs, dose 10 mg/kg, route iv; details: in vivo
[12] = Stability in rat plasma assessed as half life at 120 mins by LC-MS/MS analysis; format: ADME, cell-free
[13] = test system: Rattus norvegicus; assay: In vivo antifungal activity against azole resistant Candida albicans 904 infected in rat assessed as aggregation of inflammatory leukocytes at 10 mg/kg, ip administered for 5 days, qd by PAS and HE staining based microscopy; format: functional, organism-based; details: time 5.0 day

Structure (SMILES): CCNC(=O)c1noc(-c2cc(-c3ccc(C)cc3)c(O)cc2O)c1-c1ccc(CN2CCOCC2)cc1
- Vd [1]: 11.2 L/kg
- clearance [2]: 102 mL/min/kg
- remaining at 2 h [3]: 99.4%
- Activity [4]: Active
- Activity [5]: Active
- MRT inf [6]: 1.12 h
- inhibition at 10 min, 10 µM [7]: 17.8%
- CLint [8]: 81.6 mL/min/kg
- AUC(0-inf) [9]: 3030 ng·h/mL
- inhibition at 10 min, 10 µM [10]: 39.3%
- AUC(0-t) at 24 h [11]: 3010 ng·h/mL
- half-life [12]: > 288 min
- Activity [13]: Active
